Assay results published in patent US20220002283A1 (Mylan Laboratories Limited, priority 2019, published 2022).

Assays:
[1] = Solid state stability, PXRD; format: physicochemical; set-up: key: X: crystalline; S: stable
Experimental: Thus, the X-ray diffraction patterns of the co-crystals of provided herein were measured on a PANalytical X'PertPRO Powder X-ray diffractometer equipped with goniometer of θ/θ configuration and X'celerator detector. The Cu-anode X-ray tube was operated at 45 kV and 40 mA. The experiments were conducted over the 2θ range of 2.0°-50.0°, 0.030° step size and 189.865 time per step (seconds) and all the co-crystals were characterized with above mentioned method.
(§1) The samples were analyzed by PXRD, assay and related substances by HPLC.

[2] = Solid state stability, physical and chemical (PXRD and HPLC), overall finding
Experimental: as §1

[3] = Solid state stability, HPLC meloxicam co-crystal assay; format: physicochemical; settings: for A %: Co-former Assay % / M %: Meloxicam Assay %: samples as per Examples 1, 2, 3
Experimental: • Instrumentation: Waters HPLC system having 2695 model pump having UV/PDA detector with Empower chromatography software or its equivalent. • Column: (A) Unison UK C18 column; (B) YMC Trait C18 EXRS Column, 250×4.6 mm, 5.0 micron; (C) Water Atlantis T3, 250×4.6 mm, 5 micron. • Mobile Phase: (A) methanol-acetonitrile-dipotassium phosphate buffer; or (B) acetonitrile-Sodium sulfate buffer solution • Detection wavelength: 210 nm and 360 nm
as §1

[4] = Solid state stability, impurities by HPLC; format: physicochemical
Experimental: A Zorbax Eclipse XDB C18 column was used with the mobile phase of methanol-acetonitrile-10 mM phosphate buffer solution at the detection wavelength of 350 nm and 260 nm. • Instrumentation: Waters HPLC system having 2695 model pump having UV/PDA detector with Empower chromatography software or its equivalent. • Chemicals: Dipotassium hydrogen phosphate, orthophosphoric acid, acetonitrile, water, sodium hydroxide, methanol. • Column: Zorbax Eclipse XDB C18 column, 250×4.6 mm, 5 μm. • Elution: Gradient. • Flow rate: 0.8 mL/min.
as §1

[5] = physchem
[6] = 25° C./60% RH, 1 mo., samples as per Examples 1, 2, 3
[7] = 25° C./60% RH, 2 mo., samples as per Examples 1, 2, 3
[8] = 25° C./60% RH, 3 mo., samples as per Examples 1, 2, 3
[9] = 25° C./60% RH, Initial, samples as per Examples 1, 2, 3
[10] = 40° C./75% RH, 1 mo., samples as per Examples 1, 2, 3
[11] = 40° C./75% RH, 2 mo., samples as per Examples 1, 2, 3
[12] = 40° C./75% RH, 3 mo., samples as per Examples 1, 2, 3
[13] = 40° C./75% RH, Initial, samples as per Examples 1, 2, 3
[14] = 40° C./75% RH and 25° C./60% RH, three months
[15] = 40° C./75% RH, 1 mo., samples as per Example 7, 17 or 14
[16] = 40° C./75% RH, 2 mo., samples as per Example 7, 17 or 14
[17] = 40° C./75% RH, Initial, samples as per Example 7, 17 or 14
[18] = 25° C./60% RH, 1 mo., samples as per Example 7 or 17
[19] = 25° C./60% RH, 2 mo., samples as per Example 7 or 17
[20] = 25° C./60% RH, 3 mo., samples as per Example 7 or 17
[21] = 25° C./60% RH, Initial, samples as per Example 7 or 17
[22] = 40° C./75% RH, 3 mo., samples as per Example 7 or 17

## CC(=O)Oc1ccccc1C(=O)O.Cc1cnc(NC(=O)C2=C(O)c3ccccc3S(=O)(=O)N2C)s1 [Meloxicam:Acetylsalicylic acid (1:1)]
[1]; [6]
  PXRD: S
[1]; [7]
  PXRD: S
[1]; [8]
  PXRD: S
[1]; [9]
  PXRD: X
[1]; [10]
  PXRD: S
[1]; [11]
  PXRD: S
[1]; [12]
  PXRD: S
[1]; [13]
  PXRD: X
[2]; [14]
  physical and chemical stability: physically and chemically stable
[3]; 25° C./60% RH, 1 mo.
  A %: Co-former Assay %: 33.4%
  M %: Meloxicam Assay %: 66.0%
[3]; 25° C./60% RH, 2 mo.
  A %: Co-former Assay %: 33.0%
  M %: Meloxicam Assay %: 66.0%
[3]; 25° C./60% RH, 3 mo.
  A %: Co-former Assay %: 33.0%
  M %: Meloxicam Assay %: 65.7%
[3]; 25° C./60% RH, Initial
  A %: Co-former Assay %: 33.6%
  M %: Meloxicam Assay %: 65.7%
[3]; 40° C./75% RH, 1 mo.
  A %: Co-former Assay %: 33.4%
  M %: Meloxicam Assay %: 65.9%
[3]; 40° C./75% RH, 2 mo.
  A %: Co-former Assay %: 32.8%
  M %: Meloxicam Assay %: 65.8%
[3]; 40° C./75% RH, 3 mo.
  A %: Co-former Assay %: 33.0%
  M %: Meloxicam Assay %: 65.4%
[3]; 40° C./75% RH, Initial
  A %: Co-former Assay %: 33.6%
  M %: Meloxicam Assay %: 65.7%

## Cc1cnc(NC(=O)C2=C(O)c3ccccc3S(=O)(=O)N2C)s1.O=C(O)c1ccccc1O [Meloxicam:Salicylic acid Form III (1:1)]
[1]; [6]
  PXRD: S
[1]; [7]
  PXRD: S
[1]; [8]
  PXRD: S
[1]; [9]
  PXRD: X
[1]; [15]
  PXRD: S
[1]; [10]
  PXRD: S
[1]; [16]
  PXRD: S
[1]; [11]
  PXRD: S
[1]; [12]
  PXRD: S
[1]; [17]
  PXRD: X
[1]; [13]
  PXRD: X
[4]; [15]
  Impurities (% w/w, by HPLC) Ethyl Meloxicam: 0.003 % w/w
  Impurities (% w/w, by HPLC) Other* (any other individual impurity): 0.01 % w/w
  Impurities (% w/w, by HPLC) Total: 0.04 % w/w
[4]; [16]
  Impurities (% w/w, by HPLC) Methyl Meloxicam: 0.001 % w/w
  Impurities (% w/w, by HPLC) Other* (any other individual impurity): 0.01 % w/w
  Impurities (% w/w, by HPLC) Total: 0.01 % w/w
[4]; [17]
  Impurities (% w/w, by HPLC) Other* (any other individual impurity): 0.01 % w/w
  Impurities (% w/w, by HPLC) Total: 0.01 % w/w
[4]; any timepoint from initiation up to 2 months, 40° C./75% RH
  Meloxicam Related Compounds A, B, C, and D by HPLC: ^#Meloxicam Related Compounds A, B, C, and D (see Table 4a) were not detectable at any timepoint from initiation up to 2 months.
[2]; [14]
  physical and chemical stability: physically and chemically stable
[2]; 40° C./75% RH, at least 2 months
  physical and chemical stability: physically and chemically stable
[3]; 25° C./60% RH, 1 mo.
  M %: Meloxicam Assay %: 71.7%
[3]; 25° C./60% RH, 2 mo.
  A %: Co-former Assay %: 27.2%
  M %: Meloxicam Assay %: 72.0%
[3]; 25° C./60% RH, 3 mo.
  A %: Co-former Assay %: 27.6%
  M %: Meloxicam Assay %: 72.1%
[3]; 25° C./60% RH, Initial
  A %: Co-former Assay %: 27.5%
  M %: Meloxicam Assay %: 71.3%
[3]; [15]
  Assay (% by HPLC) M % (Meloxicam Assay %): 71.4%
[3]; 40° C./75% RH, 1 mo.
  M %: Meloxicam Assay %: 72.0%
[3]; [16]
  Assay (% by HPLC) M % (Meloxicam Assay %): 71.2%
[3]; 40° C./75% RH, 2 mo.
  A %: Co-former Assay %: 27.0%
  M %: Meloxicam Assay %: 71.5%
[3]; 40° C./75% RH, 3 mo.
  A %: Co-former Assay %: 27.4%
  M %: Meloxicam Assay %: 71.8%
[3]; [17]
  Assay (% by HPLC) M % (Meloxicam Assay %): 71.1%
[3]; 40° C./75% RH, Initial
  A %: Co-former Assay %: 27.5%
  M %: Meloxicam Assay %: 71.3%

## Cc1cnc(NC(=O)C2=C(O)c3ccccc3S(=O)(=O)N2C)s1.Cc1cnc(NC(=O)C2=C(O)c3ccccc3S(=O)(=O)N2C)s1.O=C(O)CCC(=O)O [Meloxicam:Succinic acid (2:1)]
[1]; [18]
  PXRD: S
[1]; [19]
  PXRD: S
[1]; [20]
  PXRD: S
[1]; [21]
  PXRD: X
[1]; [15]
  PXRD: S
[1]; [16]
  PXRD: S
[1]; [22]
  PXRD: S
[1]; [17]
  PXRD: X
[4]; [18]
  Impurities (% w/w, by HPLC) Ethyl Meloxicam: BDL
  Impurities (% w/w, by HPLC) Methyl Meloxicam: 0.01 % w/w
  Impurities (% w/w, by HPLC) Other* (any other individual impurity): 0.03 % w/w
  Impurities (% w/w, by HPLC) Total: 0.14 % w/w
[4]; [19]
  Impurities (% w/w, by HPLC) Ethyl Meloxicam: BDL
  Impurities (% w/w, by HPLC) Methyl Meloxicam: BDL
  Impurities (% w/w, by HPLC) Other* (any other individual impurity): 0.03 % w/w
  Impurities (% w/w, by HPLC) Total: 0.13 % w/w
[4]; [20]
  Impurities (% w/w, by HPLC) Ethyl Meloxicam: BDL
  Impurities (% w/w, by HPLC) Methyl Meloxicam: BDL
  Impurities (% w/w, by HPLC) Other* (any other individual impurity): 0.02 % w/w
  Impurities (% w/w, by HPLC) Total: 0.13 % w/w
[4]; [21]
  Impurities (% w/w, by HPLC) Ethyl Meloxicam: BDL
  Impurities (% w/w, by HPLC) Methyl Meloxicam: 0.01 % w/w
  Impurities (% w/w, by HPLC) Other* (any other individual impurity): 0.03 % w/w
  Impurities (% w/w, by HPLC) Total: 0.06 % w/w
[4]; [15]
  Impurities (% w/w, by HPLC) Ethyl Meloxicam: BDL
  Impurities (% w/w, by HPLC) Methyl Meloxicam: 0.01 % w/w
  Impurities (% w/w, by HPLC) Other* (any other individual impurity): 0.03 % w/w
  Impurities (% w/w, by HPLC) Total: 0.14 % w/w
[4]; [16]
  Impurities (% w/w, by HPLC) Ethyl Meloxicam: BDL
  Impurities (% w/w, by HPLC) Methyl Meloxicam: BDL
  Impurities (% w/w, by HPLC) Other* (any other individual impurity): 0.03 % w/w
  Impurities (% w/w, by HPLC) Total: 0.12 % w/w
[4]; [22]
  Impurities (% w/w, by HPLC) Ethyl Meloxicam: BDL
  Impurities (% w/w, by HPLC) Methyl Meloxicam: BDL
  Impurities (% w/w, by HPLC) Other* (any other individual impurity): 0.01 % w/w
  Impurities (% w/w, by HPLC) Total: 0.08 % w/w
[4]; [17]
  Impurities (% w/w, by HPLC) Ethyl Meloxicam: BDL
  Impurities (% w/w, by HPLC) Methyl Meloxicam: 0.01 % w/w
  Impurities (% w/w, by HPLC) Other* (any other individual impurity): 0.03 % w/w
  Impurities (% w/w, by HPLC) Total: 0.06 % w/w
[4]; any timepoint from initiation up to 3 months, 40° C./75% RH and 25° C./60% RH
  Meloxicam Related Compounds A, B, C, and D by HPLC: ^#Meloxicam Related Compounds A, B, C, and D (see Table 4a) were not detectable at any timepoint from initiation up to 3 months.
[2]; [14]
  physical and chemical stability: physically and chemically stable
[3]; [18]
  Assay (% by HPLC) M % (Meloxicam Assay %): 85.2%
[3]; [19]
  Assay (% by HPLC) M % (Meloxicam Assay %): 85.1%
[3]; [20]
  Assay (% by HPLC) M % (Meloxicam Assay %): 84.8%
[3]; [21]
  Assay (% by HPLC) M % (Meloxicam Assay %): 85.1%
[3]; [15]
  Assay (% by HPLC) M % (Meloxicam Assay %): 84.8%
[3]; [16]
  Assay (% by HPLC) M % (Meloxicam Assay %): 83.9%
[3]; [22]
  Assay (% by HPLC) M % (Meloxicam Assay %): 84.9%
[3]; [17]
  Assay (% by HPLC) M % (Meloxicam Assay %): 85.1%

## O=C(O)CCC(=O)O [Succinic acid]
[5]
  pKa: -0.01
